For experiment [1], the system named is HCT116 WT cells. The experiment can be described thus: HCT116 WT cell line proliferation (CellTiter-Glo cell viability, 6 days). Format: cell-based. The conditions noted are these: HCT116 WT (parent) cells, 6 days of treatment, CellTiter-Glo cell viability, read-out: HCT-116 WT IC50. In short, it runs like this:
(§1)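 Isogenic HCT116 pair (parent and MTAP double-allele knockout) in RPMI 1640 + 10% FBS, exposed 6 days to compound: 8–9-point 1:3 dilutions from 1 or 10 μM top, or 22-point 1:2 dilutions from 10 or 50 μM top. CellTiter-Glo luminescence; IC50 from sigmoidal fit (Hill −1) or 4-parameter logistic.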
A general note: ATP-based viability assays read luminescence as a measure of living cells.

The test system of experiment [2] is HCT116 MTAP null cells. Briefly: HCT116 MTAP null cell line proliferation (CellTiter-Glo cell viability, 6 days). The conditions noted are these: HCT116 MTAP null cells, 6 days of treatment, CellTiter-Glo cell viability, read-out: HCT-116 MTAP null IC50. Format: cell-based. A digest of the protocol:
as §1

Each structure is given as a SMILES string. Like-named read-outs stand apart in the source and are kept apart here.

`Cn1ncc2c(N)nc3cc(Cl)c(C(=O)N4CCC(c5ccc(C(F)(F)F)cn5)C4)cc3c21` (racemic) [Example 543, (4-amino-7-chloro-1-methyl-1H-pyrazolo[4,3-c]quinolin-8-yl)((3R)-3-(5-(trifluoromethyl)-2-pyridinyl)-1-pyrrolidinyl)methanone and (4-amino-7-chloro-1-methyl-1H-pyrazolo[4,3-c]quinolin-8-yl)((3S)-3-(5-(trifluoromethyl)-2-pyridinyl)-1-pyrrolidinyl)methanone]: the IC50 – broadly, the point on the concentration scale where inhibition reaches its midpoint – in experiment [1] (Homo sapiens, HCT-116, 144 h) was 1860 nM; in experiment [2] (HCT116-MTAP null, 144 h), 18 nM.
For `COc1ccc([C@H]2COC[C@@H](C)N2C(=O)c2cc3c4c(c(N)nc3cn2)COC4)nn1` (relative stereo) [Example 491, (4-amino-1,3-dihydrofuro[3,4-c][1,7]naphthyridin-8-yl)((3S,5R)-3-(6-methoxypyridazin-3-yl)-5-methylmorpholino)methanone], in that order: 4380 nM and 108 nM.
For `C[C@H]1OCc2c1c(N)nc1cnc(C(=O)N3CCOC[C@@H]3c3ccc(C(F)(F)F)cc3)cc21` (single isomer, unassigned) [Example 452] the same measures were 3460 nM and 49 nM.
For `C[C@@H]1OCc2c1c(N)nc1cnc(C(=O)N3CCOC[C@@H]3c3ccc(C(F)(F)F)cc3)cc21` (single isomer, unassigned) [Example 453] the same measures were 40300 nM and 2180 nM.
Take `C[C@H]1OCc2c1c(N)nc1cnc(C(=O)N3CCOC[C@@H]3c3ccc(C(F)(F)C(F)(F)F)cc3)cc21` (single isomer, unassigned) [Example 454]: the IC50 in experiment [1] (Homo sapiens, HCT-116, 144 h) was determined as 778 nM; in experiment [2] (HCT116-MTAP null, 144 h), 24 nM.
For `Nc1nc2ccc(C(=O)N3CCOC[C@H]3c3ccc(C(F)(F)F)cc3)cc2c2c1COC2` (single isomer, unassigned) [Example 455] the same measures were over 10000 nM and over 1000 nM.
As for `Nc1nc2ccc(C(=O)N3CCOC[C@@H]3c3ccc(C(F)(F)F)cc3)cc2c2c1COC2` (single isomer, unassigned) [Example 456], the IC50 in experiment [1] (Homo sapiens, HCT-116, 144 h) came to 4360 nM; in experiment [2] (HCT116-MTAP null, 144 h), 102 nM.
Take `Nc1nc2cnc(C(=O)N3CCOC[C@H]3c3ccc(S(F)(F)(F)(F)F)cc3)cc2c2c1COC2` (single isomer, unassigned) [Example 457]: the IC50 in experiment [1] (Homo sapiens, HCT-116, 144 h) worked out at 18600 nM; in experiment [2] (HCT116-MTAP null, 144 h), 8710 nM.
Take `Nc1nc2cnc(C(=O)N3CCOC[C@@H]3c3ccc(S(F)(F)(F)(F)F)cc3)cc2c2c1COC2` (single isomer, unassigned) [Example 458]: the IC50 is 454 nM in experiment [1] (Homo sapiens, HCT-116, 144 h) and 18 nM in experiment [2] (HCT116-MTAP null, 144 h).
For `Nc1nc2cnc(C(=O)N3CCOC[C@@H]3c3ncc(Br)cc3F)cc2c2c1COC2` (single isomer, unassigned) [Example 459] the same measures were 6140 nM and 72 nM.
For `Nc1nc2cc(F)c(C(=O)N3CCOC[C@@H]3c3ncc(Br)cc3F)cc2c2c1COC2` (single isomer, unassigned) [Example 460], in that order: 1810 nM and 30 nM.
For `CC[C@@H]1CN(C(=O)c2ccc3nc(N)c4c(c3c2)CO[C@@H]4C)C[C@H]1c1ccc(C)cc1` (single isomer, unassigned) [Example 461] the same measures were 14600 nM and 864 nM.
With `C[C@H]1OCc2c1c(N)nc1ccc(C(=O)N3C[C@@H](c4ccc(F)cc4)C(C)(C)C3)cc21` (single isomer, unassigned) [Example 462], the IC50 came to 14100 nM in experiment [1] (Homo sapiens, HCT-116, 144 h) and 595 nM in experiment [2] (HCT116-MTAP null, 144 h).
For `C[C@H]1OCc2c1c(N)nc1ccc(C(=O)N3C[C@H](c4ccc(F)cc4)C(C)(C)C3)cc21` (single isomer, unassigned) [Example 463] the same measures were 6550 nM and 122 nM.
For `Cc1ccc([C@@H]2CN(C(=O)c3cc4c5c(c(N)nc4cc3F)COC5)CC2(C)C)cc1` (single isomer, unassigned) [Example 464], the IC50 in experiment [1] (Homo sapiens, HCT-116, 144 h) worked out at 5470 nM; in experiment [2] (HCT116-MTAP null, 144 h), 195 nM.
For `CC1(C)CN(C(=O)c2cc3c4c(c(N)nc3cc2F)COC4)C[C@H]1c1ccc(F)cc1` (single isomer, unassigned) [Example 465] the same measures were 3510 nM and 71 nM.
For `C[C@H]1OCc2c1c(N)nc1ccc(C(=O)N3C[C@@H](O)[C@H](c4ccc(Cl)cc4)C3)cc21` (single isomer, unassigned) [Example 466], in that order: 16600 nM and 189 nM.
For `C[C@H]1OCc2c1c(N)nc1ccc(C(=O)N3C[C@H](c4ccc(Cl)cc4)[C@@H](O)C3)cc21` (single isomer, unassigned) [Example 467], in that order: 31200 nM and 982 nM.
Consider `Nc1nc2cc(F)c(C(=O)N3CC[C@H](c4ccc(C(F)(F)F)cc4)C3)cc2c2c1COC2` (single isomer, unassigned) [Example 468], for which the half-maximal inhibitory concentration (IC50) in experiment [1] (Homo sapiens, HCT-116, 144 h) stood at 37400 nM; in experiment [2] (HCT116-MTAP null, 144 h), 417 nM.
For `Cn1ncc2c(N)nc3cc(F)c(C(=O)N4CC[C@@H](Cc5ccc(C(F)(F)F)cc5)C4)cc3c21` (single isomer, unassigned) [Example 469], in that order: 4950 nM and 243 nM.
In the case of `Cn1ncc2c(N)nc3cc(F)c(C(=O)N4CC[C@H](Cc5ccc(C(F)(F)F)cc5)C4)cc3c21` (single isomer, unassigned) [Example 470], the half-maximal inhibitory concentration (IC50) is 5300 nM in experiment [1] (Homo sapiens, HCT-116, 144 h) and 340 nM in experiment [2] (HCT116-MTAP null, 144 h).
For `Cn1ncc2c(N)nc3cc(F)c(C(=O)N4CC[C@@H](Oc5ccc(C(F)(F)F)cc5)C4)cc3c21` (single isomer, unassigned) [Example 471], in that order: 6010 nM and 283 nM.
For `Cn1ncc2c(N)nc3cc(F)c(C(=O)N4CC[C@H](Oc5ccc(C(F)(F)F)cc5)C4)cc3c21` (single isomer, unassigned) [Example 472] the same measures were 4470 nM and 190 nM.
For `CC1(C)CN(C(=O)c2cc3c4c(c(N)nc3cc2F)COC4)C[C@@H]1c1ccc(C(F)(F)F)cc1` (single isomer, unassigned) [Example 473] the same measures were 556 nM and 17 nM.
Regarding `Cn1ncc2c(N)nc3cc(F)c(C(=O)N4CC[C@@H](Oc5ccc(C(F)(F)F)cn5)C4)cc3c21` (single isomer, unassigned) [Example 474], the IC50 in experiment [1] (Homo sapiens, HCT-116, 144 h) was 6420 nM; in experiment [2], 842 nM.
With `Cn1ncc2c(N)nc3cc(F)c(C(=O)N4CC[C@@H](Oc5ccc(C(F)(F)F)cn5)C4)cc3c21` (single isomer, unassigned) [Example 475], the IC50 in experiment [1] worked out at 9490 nM; in experiment [2], 175 nM.
On to `Nc1nc2cc(Cl)c(C(=O)N3C[C@@H](c4ccc(F)cc4)[C@H](c4cc[nH]n4)C3)cc2c2c1COC2` (single isomer, unassigned) [Example 476], for which the IC50 worked out at 1560 nM in experiment [1] (Homo sapiens, HCT-116, 144 h) and 68 nM in experiment [2] (HCT116-MTAP null, 144 h).
For `Nc1nc2cc(Cl)c(C(=O)N3CC[C@@](O)(c4ccc(C(F)(F)F)cc4)C3)cc2c2c1COC2` (single isomer, unassigned) [Example 477], in that order: over 50000 nM and 547 nM.
For `CC1(C)CN(C(=O)c2cc3c4c(c(N)nc3cc2F)COC4)C[C@H]1c1ccc(Br)cc1` (single isomer, unassigned) [Example 478] the same measures were 1950 nM and 31 nM.
Turning to `COC(=O)[C@H]1CN(C(=O)c2cc3c4c(c(N)nc3cc2F)COC4)C[C@@H]1c1ccc(C(F)(F)F)cc1` (single isomer, unassigned) [Example 479], the IC50 in experiment [1] (Homo sapiens, HCT-116, 144 h) was found to be 18900 nM; in experiment [2] (HCT116-MTAP null, 144 h), 577 nM.
Take `COC(=O)[C@@H]1CN(C(=O)c2cc3c4c(c(N)nc3cc2F)COC4)C[C@H]1c1ccc(C(F)(F)F)cc1` (single isomer, unassigned) [Example 480]: the IC50 in experiment [1] (Homo sapiens, HCT-116, 144 h) was determined as 1750 nM; in experiment [2] (HCT116-MTAP null, 144 h), 92 nM.
For `Nc1nc2cnc(C(=O)N3CCOC[C@@H]3c3ccc(C(F)(F)F)cc3)cc2c2c1COC2` (single isomer, unassigned) [Example 481] the same measures were 4330 nM and 107 nM.
On to `Nc1nc2cnc(C(=O)N3CCOC[C@H]3c3ccc(C(F)(F)F)cc3)cc2c2c1COC2` (single isomer, unassigned) [Example 482], for which the IC50 is over 10000 nM in experiment [1] (Homo sapiens, HCT-116, 144 h) and over 1000 nM in experiment [2] (HCT116-MTAP null, 144 h).
For `Nc1nc2cnc(C(=O)N3CCCC[C@@H]3c3ccc(C(F)(F)F)cc3)cc2c2c1COC2` (single isomer, unassigned) [Example 485] the same measures were 1740 nM and 40 nM.
For `Nc1nc2cnc(C(=O)N3CCCC[C@H]3c3ccc(C(F)(F)F)cc3)cc2c2c1COC2` (single isomer, unassigned) [Example 486], in that order: over 10000 nM and over 1000 nM.
`Nc1nc2ccc(C(=O)N3CCOC[C@H]3c3ccc(C(F)(F)F)cc3)cc2c2ccsc12` (single isomer, unassigned) [Example 487]: the IC50 was over 10000 nM in experiment [1] (Homo sapiens, HCT-116, 144 h) and over 1000 nM in experiment [2] (HCT116-MTAP null, 144 h).
For `Nc1nc2ccc(C(=O)N3CCOC[C@@H]3c3ccc(C(F)(F)F)cc3)cc2c2ccsc12` (single isomer, unassigned) [Example 488] the same measures were 7490 nM and over 1000 nM.
For `Nc1nc2ccc(C(=O)N3CCCC[C@H]3c3ccc(C(F)(F)F)cc3)cc2c2ccsc12` (single isomer, unassigned) [Example 489] the same measures were 5320 nM and over 1000 nM.

The values are drawn from patent US11845760B2, “PRMT5 inhibitors” (AMGEN INC., priority 2020, dated 2023).
